Literature values in patent publication US6391860B1, “Method for preparation and use of paste formed by controlled reaction of sucralfate with hydrochloric acid” (priority 1999, dated 2002).

solubility in most polar and non-polar solvents: insoluble
solubility in strong acid and strong alkali: soluble
Substance: aluminum hydroxide salt of sucrose octasulfate [Sucralfate]
